Molecules are shown by their SMILES.

A word on the IC50: it is the concentration at which inhibition is half-maximal.

In one assay the target is T1, human BRD4 bromodomain II (Homo sapiens, UniProt O60885).
T1 construct: human BRD4 bromodomain II [based on Genbank NM_058243, residues 349-460]; host or cells: E. coli
Kind of assay: Bromodomain binding assay (AlphaScreen), BRD4 BDII. The following applies: AlphaScreen assay, Table C2; read-out: BRD4 BDII IC50. On the procedure:
Bromodomain Binding Assay
The bromodomain binding assay utilizes AlphaScreen technology. Compounds compete with a biotinylated peptide ligand (from histone H4: aa 1-21, K5/K8/K12/K16Ac-biotin) for binding to a hexahistidine (His6)-tagged bromodomain. Peptide binding is detected by fluorescence signal after singlet oxygen energy transfer from peptide-bound AlphaScreen streptavidin-coated donor beads to His6-tagged bromodomain-bound nickel-chelate acceptor beads (PerkinElmer). Briefly, 8 μL 2.5× bromodomain (E. coli expressed, N-terminal His6-tagged human BRD4 bromodomain II [based on Genbank NM_058243, residues 349-460] or N-terminal His6-tagged human BRD4 bromodomain I [residues 44-170]) in reaction buffer (50 mM HEPES [pH 7.5], 100 mM NaCl, 0.05% CHAPS, 0.1% BSA, 1% DMSO) is added to wells of an assay plate (384-well low flange white, flat bottom, polystyrene microplate, Corning #3572; buffer only is added to some wells as a negative control). A compound concentration series (10 concentrations, 3-fold serial dilutions previously prepared in 100% DMSO, or 100% DMSO only negative control) is delivered to the assay plate with an Echo 550 acoustic liquid handler (Labcyte), followed by plate centrifugation and incubation for 30 minutes at room temperature. Then 4 μL 5× biotinylated peptide ligand is added, followed by plate centrifugation and gentle shaking for 30 minutes at room temperature to mix. After this incubation, 4 μL 5× donor beads are added, and the plate is centrifuged, followed by brief gentle shaking to mix. Finally, 4 μL 5× acceptor beads are added, and the plate is centrifuged, followed by gentle shaking for 60 minutes at room temperature in the dark. AlphaScreen signal (excitation/emission: 680 nm/520-620 nm) is detected with an EnSpire multimode plate reader (PerkinElmer). Percentage peptide binding is plotted as a function of concentration, and curve fitting is used to determine competitive compound binding ICsos.
A general note: Alpha assays give light when donor and acceptor beads are brought close together.
Regarding `O=C(Nc1ccc(-c2cccc(-c3cc(N4CCNCC4)no3)c2O)cc1)C(F)(F)F` [Example 39, 2,2,2-Trifluoro-N-(2′-hydroxy-3′-(3-(piperazin-1-yl)isoxazol-5-yl)-[1,1′-biphenyl]-4-yl)acetamide 2,2,2-trifluoroacetate], the IC50 was more than 100 nM.
In the case of `CC(=O)Nc1ccc(-c2cccc(-c3ccc(NC(C)=O)nc3)c2O)cn1` [Example 40, N,N′-(5,5′-(2-Hydroxy-1,3-phenylene)bis(pyridine-5,2-diyl))diacetamide], the 50% inhibitory concentration (IC50) was more than 100 nM.
Still for that read-out and setting: then `O=C1NCCN1c1ccc(-c2cccc(-c3cc(N4CCNCC4)no3)c2O)cc1` [Example 41, 1-(2′-Hydroxy-3′-(3-(piperazin-1-yl)isoxazol-5-yl)-[1,1′-biphenyl]-4-yl)imidazolidin-2-one 2,2,2-trifluoroacetate], with 10 to 100 nM; and `COc1cc(-c2cccc(-c3ccc(NC(C)=O)c(F)c3)c2O)ccc1NC(C)=O` [Example 42, N,N′-(3-Fluoro-2′-hydroxy-3″-methoxy-[1,1′:3′,1″-terphenyl]-4,4″-diyl)diacetamide], with 10 to 100 nM; and `O=C1CCCN1c1ccc(-c2cccc(-c3cc(N4CCNCC4)no3)c2O)cc1` [Example 43, 1-(2′-Hydroxy-3′-(3-(piperazin-1-yl)isoxazol-5-yl)-[1,1′-biphenyl]-4-yl)pyrrolidin-2-one 2,2,2-trifluoroacetate], with 10 to 100 nM.
Still for that read-out and setting: the same measure for `CC(=O)Nc1ccc(-c2cccc(-c3cc(N4CCNCC4)no3)c2O)cc1OC1CC1` [Example 44, N-(3-Cyclopropoxy-2′-hydroxy-3′-(3-(piperazin-1-yl)isoxazol-5-yl)-[1,1′-biphenyl]-4-yl)acetamide 2,2,2-trifluoroacetate]: 10 to 100 nM.
For the compound `CC(=O)Nc1ccc(-c2cccc(-c3ccc(NC(C)=O)c(OC4CCC4)c3)c2O)cc1F` [Example 45, N,N′-(3-Cyclobutoxy-3″-fluoro-2′-hydroxy-[1,1′:3′,1″-terphenyl]-4,4″-diyl)diacetamide], the IC50 is more than 100 nM.
Still for that read-out and setting: the same measure for `CC(=O)Nc1ccc(-c2cccc(-c3ccc(NC(C)=O)c(Cl)c3)c2O)cc1F` [Example 46, N,N′-(3-Chloro-3″-fluoro-2′-hydroxy-[1,1′:3′,1″-terphenyl]-4,4″-diyl)diacetamide]: more than 100 nM; for `CC(=O)Nc1ccc(-c2cccc(-c3ccc4c(c3)CCN4C(C)=O)c2O)cc1F` [Example 47, N-(3′-(1-Acetylindolin-5-yl)-3-fluoro-2′-hydroxy-[1,1′-biphenyl]-4-yl)acetamide]: more than 100 nM.
As to `O=C(Nc1ccc(-c2cccc(-c3cc(N4CCNCC4)no3)c2O)cc1)C(F)F` [Example 48, 2,2-Difluoro-N-(2′-hydroxy-3′-(3-(piperazin-1-yl)isoxazol-5-yl)-[1,1′-biphenyl]-4-yl)acetamide 2,2,2-trifluoroacetate], the IC50 is more than 100 nM.
On the same count and under the same terms, the same measure for `CC(=O)Nc1ccc(-c2cccc(-c3ccc(NC(C)=O)c(C#N)c3)c2O)cc1F` [Example 49, N,N′-(3-Cyano-3″-fluoro-2′-hydroxy-[1,1′:3′,1″-terphenyl]-4,4″-diyl)diacetamide]: 10 to 100 nM; for `CC(=O)Nc1ccc(-c2cccc(-c3ccc(NC(C)=O)c(F)c3)c2O)cc1C` [Example 50, N,N′-(3-Fluoro-2′-hydroxy-3″-methyl-[1,1′:3′,1″-terphenyl]-4,4″-diyl)diacetamide]: 10 to 100 nM.
Regarding `CCOc1cc(-c2cccc(-c3ccc(NC(C)=O)c(F)c3)c2O)ccc1NC(C)=O` [Example 52, N,N′-(3-Ethoxy-3″-fluoro-2′-hydroxy-[1,1′:3′,1″-terphenyl]-4,4″-diyl)diacetamide], the IC50 lay in the range of 10 to 100 nM.
Consider `CC(=O)Nc1ccc(-c2cccc(-c3ccc(NC(C)=O)c(Oc4ccccc4)c3)c2O)cc1F` [Example 53, N,N′-(3-Fluoro-2′-hydroxy-3″-phenoxy-[1,1′:3′,1″-terphenyl]-4,4″-diyl)diacetamide], for which the half-inhibitory concentration (IC50) is more than 100 nM.
The same measure, in the same setting: then `CC(=O)Nc1ccc(-c2cccc(-c3cccc(F)c3)c2O)cc1F` [Example 54, N-(3,3″-Difluoro-2′-hydroxy-[1,1′:3′,1″-terphenyl]-4-yl)acetamide], with more than 100 nM; and `CC(=O)Nc1ccc(-c2cccc(-c3cccc(C)c3)c2O)cc1F` [Example 55, N-(3-fluoro-2′-hydroxy-3″-methyl-[1,1′:3′,1″-terphenyl]-4-yl)acetamide], with more than 100 nM; and `COc1cccc(-c2cccc(-c3ccc(NC(C)=O)c(F)c3)c2O)c1` [Example 56, N-(3-fluoro-2′-hydroxy-3″-methoxy-[1,1′:3′,1″-terphenyl]-4-yl)acetamide], with more than 100 nM.
On the same count and under the same terms, the same measure for `CC(=O)Nc1ccc(-c2cccc(-c3cc(N4CCN(C(C)=O)CC4)no3)c2O)cc1` [Example 57, N-(3′-(3-(4-Acetylpiperazin-1-yl)isoxazol-5-yl)-2′-hydroxy-[1,1′-biphenyl]-4-yl)acetamide]: more than 100 nM; for `CC(=O)Nc1ccc(-c2cccc(-c3cc(N4CCN(S(=O)(=O)c5ccccc5)CC4)no3)c2O)cc1` [Example 58, N-(2′-Hydroxy-3′-(3-(4-(phenylsulfonyl)piperazin-1-yl)isoxazol-5-yl)-[1,1′-biphenyl]-4-yl)acetamide]: more than 100 nM.
With `CC(=O)Nc1ccc(-c2cccc(-c3ccc(F)cc3)c2O)cc1F` [Example 59, N-(3,4″-Difluoro-2′-hydroxy-[1,1′:3′,1″-terphenyl]-4-yl)acetamide], the IC50 was more than 100 nM.
In the case of `CC(=O)Nc1ccc(-c2cccc(-c3ccc(C)cc3)c2O)cc1F` [Example 60, N-(3-Fluoro-2′-hydroxy-4″-methyl-[1,1′:3′,1″-terphenyl]-4-yl)acetamide], the IC50 is more than 100 nM.
As to `COc1ccc(-c2cccc(-c3ccc(NC(C)=O)c(F)c3)c2O)cc1` [Example 61, N-(3-Fluoro-2′-hydroxy-4″-methoxy-[1,1′:3′,1″-terphenyl]-4-yl)acetamide], the IC50 was more than 100 nM.
For the compound `O=C1CCOc2cc(-c3cccc(-c4cc(N5CCNCC5)no4)c3O)ccc2N1` [Example 62, 8-(2-Hydroxy-3-(3-(piperazin-1-yl)isoxazol-5-yl)phenyl)-2,3-dihydrobenzo[b][1,4]oxazepin-4(5H)-one], the IC50 is more than 100 nM.
Still for that read-out and setting: the same measure for `CC(=O)Nc1ccc(-c2cccc(-c3cccnc3)c2O)cc1F` [Example 63, N-(3-Fluoro-2′-hydroxy-3′-(pyridin-3-yl)-[1,1′-biphenyl]-4-yl)acetamide]: 10 to 100 nM; for `CC(=O)Nc1ccc(-c2cccc(-c3cc(N4CCNCC4)no3)c2O)cc1C#N` [Example 64, N-(3-Cyano-2′-hydroxy-3′-(3-(piperazin-1-yl)isoxazol-5-yl)-[1,1′-biphenyl]-4-yl)acetamide 2,2,2-trifluoroacetate]: 10 to 100 nM; for `CN1CCN(c2ccc(-c3cccc(-c4cc(N5CCNCC5)no4)c3O)cc2)C1=O` [Example 65, 1-(2′-Hydroxy-3′-(3-(piperazin-1-yl)isoxazol-5-yl)-[1,1′-biphenyl]-4-yl)-3-methylimidazolidin-2-one 2,2,2-trifluoroacetate]: 10 to 100 nM.

Staying with this assay, now noted: BRD4 BDII IC50, AlphaScreen assay, Table C2.
As for `O=C(CF)Nc1ccc(-c2cccc(-c3cc(N4CCNCC4)no3)c2O)cc1` [Example 66, 2-Fluoro-N-(2′-hydroxy-3′-(3-(piperazin-1-yl)isoxazol-5-yl)-[1,1′-biphenyl]-4-yl)acetamide 2,2,2-trifluoroacetate], the IC50 is more than 100 nM.

These data come from patent publication US20250179059A1 (The Regents of the University of California, priority 2021, published 2025).
